{
  "source": "paper PMC9099256",
  "about": "“Toward Novel [^18F]Fluorine-Labeled Radiotracers for the Imaging of α-Synuclein Fibrils” (Frontiers in Aging Neuroscience, 2022)",
  "key": {"[1]": {"assay": "In vitro plasma protein binding (ultrafiltration)", "type": "in vitro ADME, human", "experimental": "To estimate the free fraction (fp) of the radioligands in the plasma, an ultrafiltration method was used. Approximately 1 MBq of [^18F]d2, [^18F]d4, [^18F]d6, and [^18F]d8 were added to 450 μL of Seronorm Human plasma (Invicon GmbH, Munich, Germany), and the mixture was incubated for 10 min. After incubation, 150 μL of plasma was transferred into 3 ultrafiltration tubes (Centrifree YM-30; cutoff 30,000 MW; Millipore) and centrifuged at 8,000 rpm for 10 min. Equal aliquots of the ultrafiltrate (Cfree), and of the plasma (Ctotal) were counted for their radioactivity with a γ-counter. The fp of the radioligands was calculated as fp = Cfree/Ctotal (n = 3)."}, "[2]": {"assay": "Metabolite experiments (brain and plasma, 20 min p.i.)", "type": "in vivo, healthy mice", "experimental": "Tracers [^18F]d6 and [^18F]d8 were prepared as already described above in section “Biodistribution Experiments.” About 80–120 MBq of the tracers were injected via the caudal vein in the mice (n = 3 per tracer). At 20 min p.i., the animals were euthanized, and the needed tissues were extracted and placed on dry ice. To separate plasma from the blood cells, the blood samples were first centrifuged 13,000 rpm for 10 min, then acetonitrile acidified with 1% trifluoroacetic acid (TFA) (10 min, 4°C) was added to the centrifugate to precipitate the plasma proteins, followed by another centrifugation as already described, and ultrafiltration using ultrafiltration tubes (Centrifree YM-30; cutoff 30,000 MW; Millipore). A 10 μL of 1 M DMSO solution of the cold references was added to the centrifugate which was subsequently analyzed by RP-HPLC. The brain was frozen in liquid nitrogen and homogenized with a ball mill. A mixture of acetonitrile and DMSO (5:1) with 1% TFA containing the cold references of the tracers was added to the homogenate and mixed. The suspension was centrifuged. The supernatant was then filtered using ultrafiltration tubes as already described, the resulting filtrate was subsequently analyzed by RP-HPLC."}, "[3]": {"assay": "Biodistribution experiments", "type": "in vivo, healthy C57BL/6J mice", "experimental": "The ethanol solutions containing the tracers [^18F]d2, [^18F]d4, [^18F]d6, and [^18F]d8 were diluted with DMSO, Tween-20, and saline added consecutively to achieve a final concentration of 2.4, 2.4, and 0.4% of ethanol, DMSO, and Tween-20, respectively. The pH was adjusted with 0.05 N aqueous sodium hydroxide solution. 1.5–2.5 MBq of [^18F]d2, [^18F]d4, [^18F]d6, and [^18F]d8 prepared in the above solvent mixture were administered to the mice via the caudal vein under isoflurane anesthesia. The mice were sacrificed at 5 and 60 min p.i. The following organs/tissues were extracted: blood, heart, lung, liver, stomach, pancreas, colon, small intestine, kidney, muscle, bone, tail, and the brain. The radioactivity in the pre-weighed tissue samples was determined using a γ-counter. Data are expressed as a percent of the injected dose per gram tissue (% ID/g; mean ± sd, n = 3)."}, "[4]": {"assay": "Log D determination (octanol/PBS pH 7.4)", "type": "physicochemical", "experimental": "To a solution of [^18F]d2, [^18F]d4, [^18F]d6, and [^18F]d8 (0.5–1.0 MBq) in 0.5 mL octanol, 0.5 mL PBS (pH 7.4) was added in a 1.5 mL Eppendorf vial. The vials were vigorously vortexed for 10 min. To achieve efficient phase separation, the vials were centrifuged for 10 min at 13,000 rpm in a Heraeus Biofuge 13 centrifuge. Aliquots (100 μL) of the aqueous and the octanol phase were collected carefully and the amount radioactivity in the respective samples was quantified using a γ-counter. The log octanol/PBS values were calculated from the means of n = 3 separate determinations."}, "[5]": {"assay": "In vivo PET-MRI dynamic scan with biodistribution", "design": "species or system healthy C57BL/6J mice", "conditions": "healthy mice, i.v., biodistribution after PET dynamic scan", "experimental": "For PET imaging [^18F]d6 and [^18F]d8 were prepared as described in section “Biodistribution Experiments” and ∼11 MBq was injected via the caudal vein in the mice (n = 3 for each tracer). PET was recorded on nanoScan PET/MRI (Mediso Medical Imaging System) under isoflurane anesthesia. PET was continuously recorded in list mode for 120 min and consisted of 36 frames (1 × 60 s; 30 × 10 s; 1 × 600 s; 1 × 900 s; and 3 × 1800 s) while anesthesia was maintained. Data were reconstructed using Nucline nanoScan 3.00.021.0000 software, employing a three-dimensional ordered subset expectation maximum (OSEM3D) algorithm without a scatter and attenuation correction. Tissue time–activity curves (TACs) were obtained by projecting the defined ROI onto all frames of the dynamic PET scans. At 2 h after the PET dynamic scan, the mice were promptly euthanized, the rest of the protocol followed as already described in section “Biodistribution Experiments.”"}},
  "note": "“And” between values parts separate entries of the source, which are not always exact repeats. Equal entries are not always repeated.",
  "data": [
    {"compound": "[18F]c1ccc(-c2csc(-c3nc(-c4cnc5c(c4)OCO5)cs3)n2)cn1", "note": "[[^18F]d8, 6-(4′-(6-[^18F]fluoropyridin-3-yl)-[2,2′-bithiazol]-4-yl)-[1,3]dioxolo[4,5-b]pyridine]", "values": [
      {"measurement": "fp relative to benzodioxole counterpart", "setting": "[1]; [18F]d8 vs [18F]d6, [18F]d4 vs [18F]d2", "value": "about 6 times"},
      {"measurement": "fp (free plasma fraction)", "setting": "[1]; human plasma, ultrafiltration, n = 3", "value": "0.85 ± 0.02", "unit": "%"},
      {"measurement": "brain radiometabolites", "setting": "[2]; healthy mice", "value": "no brain radiometabolites"},
      {"measurement": "parent tracer in brain content", "setting": "[2]; mice, brain homogenate", "value": "> 99", "unit": "%"},
      {"measurement": "parent tracer remaining in the plasma (in vivo stability)", "setting": "[2]; mice, plasma", "value": "> 60", "unit": "%"},
      {"measurement": "reduction in brain concentration at 5 min p.i. versus [18F]d6", "setting": "[3]; healthy mice, 5 min p.i.", "value": 11.4, "unit": "%"},
      {"measurement": "brain uptake at 5 min p.i.", "setting": "[3]; healthy mice, i.v., 5 min p.i.", "value": 5.13, "unit": "%ID/g"},
      {"measurement": "brain uptake at 60 min p.i.", "setting": "[3]; healthy mice, i.v., 60 min p.i.", "value": "~1 %ID/g and 1.07 %ID/g"},
      {"measurement": "brain uptake in mice", "setting": "[3]; mice, time not stated", "value": "> 4", "unit": "% ID/g"},
      {"measurement": "reduction of log D versus benzodioxole counterpart", "setting": "[4]; [18F]d4 vs [18F]d2, [18F]d8 vs [18F]d6", "value": "~7.1", "unit": "%"},
      {"measurement": "logD", "setting": "[4]; octanol/PBS pH 7.4, n = 3", "value": "2.6 ± 0.09"},
      {"measurement": "brain uptake at 120 min p.i.", "setting": "[5]", "value": "< 1 %ID/g and 0.58 %ID/g"}
    ]}
  ]
}
